ChEMBL document CHEMBL4715697, “Synthesis and biological activity of benzamide DNA minor groove binders” (2016)

How the values were obtained:
Format in all cases: functional
Settings in all cases: read-out: Activity
HL-60(TB) = assay: Growth inhibition of human HL-60(TB) cells assessed as cell growth at 10 uM incubated for 48 hrs by sulforhodamine B assay relative to control
K562 = assay: Growth inhibition of human K562 cells assessed as cell growth at 10 uM incubated for 48 hrs by sulforhodamine B assay relative to control
MOLT-4 = assay: Growth inhibition of human MOLT-4 cells assessed as cell growth at 10 uM incubated for 48 hrs by sulforhodamine B assay relative to control
A549 = assay: Growth inhibition of human A549/ATCC cells assessed as cell growth at 10 uM incubated for 48 hrs by sulforhodamine B assay relative to control
EKVX = assay: Growth inhibition of human EKVX cells assessed as cell growth at 10 uM incubated for 48 hrs by sulforhodamine B assay relative to control
HOP-62 = assay: Growth inhibition of human HOP-62 cells assessed as cell growth at 10 uM incubated for 48 hrs by sulforhodamine B assay relative to control
NCI-H226 = assay: Growth inhibition of human NCI-H226 cells assessed as cell growth at 10 uM incubated for 48 hrs by sulforhodamine B assay relative to control
NCI-H23 = assay: Growth inhibition of human NCI-H23 cells assessed as cell growth at 10 uM incubated for 48 hrs by sulforhodamine B assay relative to control
NCI-H322M = assay: Growth inhibition of human NCI-H322M cells assessed as cell growth at 10 uM incubated for 48 hrs by sulforhodamine B assay relative to control
NCI-H522 = assay: Growth inhibition of human NCI-H522 cells assessed as cell growth at 10 uM incubated for 48 hrs by sulforhodamine B assay relative to control
HCC 2998 = assay: Growth inhibition of human HCC 2998 cells assessed as cell growth at 10 uM incubated for 48 hrs by sulforhodamine B assay relative to control
HCT-116 = assay: Growth inhibition of human HCT-116 cells assessed as cell growth at 10 uM incubated for 48 hrs by sulforhodamine B assay relative to control
HCT-15 = assay: Growth inhibition of human HCT-15 cells assessed as cell growth at 10 uM incubated for 48 hrs by sulforhodamine B assay relative to control
HT-29 = assay: Growth inhibition of human HT-29 cells assessed as cell growth at 10 uM incubated for 48 hrs by sulforhodamine B assay relative to control
KM12 = assay: Growth inhibition of human KM12 cells assessed as cell growth at 10 uM incubated for 48 hrs by sulforhodamine B assay relative to control
SW-620 = assay: Growth inhibition of human SW-620 cells assessed as cell growth at 10 uM incubated for 48 hrs by sulforhodamine B assay relative to control
SF-268 = assay: Growth inhibition of human SF-268 cells assessed as cell growth at 10 uM incubated for 48 hrs by sulforhodamine B assay relative to control
SF-539 = assay: Growth inhibition of human SF-539 cells assessed as cell growth at 10 uM incubated for 48 hrs by sulforhodamine B assay relative to control
SNB-75 = assay: Growth inhibition of human SNB-75 cells assessed as cell growth at 10 uM incubated for 48 hrs by sulforhodamine B assay relative to control
LOX IMVI = assay: Growth inhibition of human LOX IMVI cells assessed as cell growth at 10 uM incubated for 48 hrs by sulforhodamine B assay relative to control
M14 = assay: Growth inhibition of human M14 cells assessed as cell growth at 10 uM incubated for 48 hrs by sulforhodamine B assay relative to control
SK-MEL-5 = assay: Growth inhibition of human SK-MEL-5 cells assessed as cell growth at 10 uM incubated for 48 hrs by sulforhodamine B assay relative to control
UACC-257 = assay: Growth inhibition of human UACC-257 cells assessed as cell growth at 10 uM incubated for 48 hrs by sulforhodamine B assay relative to control
IGROV-1 = assay: Growth inhibition of human IGROV-1 cells assessed as cell growth at 10 uM incubated for 48 hrs by sulforhodamine B assay relative to control
OVCAR-3 = assay: Growth inhibition of human OVCAR-3 cells assessed as cell growth at 10 uM incubated for 48 hrs by sulforhodamine B assay relative to control
OVCAR-5 = assay: Growth inhibition of human OVCAR-5 cells assessed as cell growth at 10 uM incubated for 48 hrs by sulforhodamine B assay relative to control
OVCAR-8 = assay: Growth inhibition of human OVCAR-8 cells assessed as cell growth at 10 uM incubated for 48 hrs by sulforhodamine B assay relative to control
NCI/ADR-RES = assay: Growth inhibition of human NCI/ADR-RES cells assessed as cell growth at 10 uM incubated for 48 hrs by sulforhodamine B assay relative to control
SK-OV-3 = assay: Growth inhibition of human SK-OV-3 cells assessed as cell growth at 10 uM incubated for 48 hrs by sulforhodamine B assay relative to control
786-0 = assay: Growth inhibition of human 786-0 cells assessed as cell growth at 10 uM incubated for 48 hrs by sulforhodamine B assay relative to control
CAKI-1 = assay: Growth inhibition of human CAKI-1 cells assessed as cell growth at 10 uM incubated for 48 hrs by sulforhodamine B assay relative to control
TK-10 = assay: Growth inhibition of human TK-10 cells assessed as cell growth at 10 uM incubated for 48 hrs by sulforhodamine B assay relative to control
UO-31 = assay: Growth inhibition of human UO-31 cells assessed as cell growth at 10 uM incubated for 48 hrs by sulforhodamine B assay relative to control
PC-3 = assay: Growth inhibition of human PC-3 cells assessed as cell growth at 10 uM incubated for 48 hrs by sulforhodamine B assay relative to control
DU-145 = assay: Growth inhibition of human DU-145 cells assessed as cell growth at 10 uM incubated for 48 hrs by sulforhodamine B assay relative to control
MCF7 = assay: Growth inhibition of human MCF7 cells assessed as cell growth at 10 uM incubated for 48 hrs by sulforhodamine B assay relative to control
MDA-MB-231 = assay: Growth inhibition of human MDA-MB-231 cells assessed as cell growth at 10 uM incubated for 48 hrs by sulforhodamine B assay relative to control
BT-549 = assay: Growth inhibition of human BT-549 cells assessed as cell growth at 10 uM incubated for 48 hrs by sulforhodamine B assay relative to control
T47D = assay: Growth inhibition of human T47D cells assessed as cell growth at 10 uM incubated for 48 hrs by sulforhodamine B assay relative to control
MDA-MB-468 = assay: Growth inhibition of human MDA-MB-468 cells assessed as cell growth at 10 uM incubated for 48 hrs by sulforhodamine B assay relative to control

For `CC(=O)Nc1cc(CO)cc(NC(=O)c2ccc(C(=O)Nc3cccc(NC(=O)CCCN(C)C)c3)cc2)c1`, the growth at 10 µM (HL-60(TB)) was 91.2%, the growth at 10 µM (K562) was 16.7% and the growth at 10 µM (MOLT-4) was 57.9%. For the same molecule, the growth at 10 µM (A549) was 108%, the growth at 10 µM (EKVX) was 95.5% and the growth at 10 µM (HOP-62) was 77.7%. The growth at 10 µM (NCI-H226) was 93.6%, the growth at 10 µM (NCI-H23) was 99.1% and the growth at 10 µM (NCI-H322M) was 98.5%. For the same molecule, the growth at 10 µM (NCI-H522) was 79.5%, the growth at 10 µM (HCC 2998) was 97.7% and the growth at 10 µM (HCT-116) was 79%. It also gave a growth at 10 µM (HCT-15) of 105%, a growth at 10 µM (HT-29) of 59.4% and a growth at 10 µM (KM12) of 83.1%. For the same molecule, the growth at 10 µM (SW-620) was 98.2%, the growth at 10 µM (SF-268) was 79.4% and the growth at 10 µM (SF-539) was 88%. For the same molecule, the growth at 10 µM (SNB-75) was 62.2%, the growth at 10 µM (LOX IMVI) was 88.1% and the growth at 10 µM (M14) was 81%. For the same molecule, the growth at 10 µM (SK-MEL-5) was 77.7%, the growth at 10 µM (UACC-257) was 88% and the growth at 10 µM (IGROV-1) was 87.4%. It also gave a growth at 10 µM (OVCAR-3) of 119%, a growth at 10 µM (OVCAR-5) of 109% and a growth at 10 µM (OVCAR-8) of 105%. It also gave a growth at 10 µM (NCI/ADR-RES) of 107%, a growth at 10 µM (SK-OV-3) of 117% and a growth at 10 µM (786-0) of 104%. For the same molecule, the growth at 10 µM (CAKI-1) was 101%, the growth at 10 µM (TK-10) was 117% and the growth at 10 µM (UO-31) was 112%. For the same molecule, the growth at 10 µM (PC-3) was 98.6%, the growth at 10 µM (DU-145) was 105% and the growth at 10 µM (MCF7) was 25.2%. For the same molecule, the growth at 10 µM (MDA-MB-231) was 88.6%, the growth at 10 µM (BT-549) was 108% and the growth at 10 µM (T47D) was 82.4%. The growth at 10 µM (MDA-MB-468) was 83.8%.
With `CC(=O)Nc1cc(CO[Si](C)(C)C(C)(C)C)cc(NC(=O)c2ccc(C(=O)Nc3cccc(NC(=O)CCCN(C)C)c3)cc2)c1` the growth at 10 µM (HL-60(TB)) was 81%, the growth at 10 µM (K562) was 93% and the growth at 10 µM (MOLT-4) was 91%. It also gave a growth at 10 µM (A549) of 86%, a growth at 10 µM (EKVX) of 91% and a growth at 10 µM (HOP-62) of 92%. The growth at 10 µM (NCI-H226) was 85%, the growth at 10 µM (NCI-H23) was 90% and the growth at 10 µM (NCI-H322M) was 102%. It also gave a growth at 10 µM (NCI-H522) of 82%, a growth at 10 µM (HCC 2998) of 93% and a growth at 10 µM (HCT-116) of 99%. For the same molecule, the growth at 10 µM (HCT-15) was 85%, the growth at 10 µM (HT-29) was 106% and the growth at 10 µM (KM12) was 95%. It also gave a growth at 10 µM (SW-620) of 99%, a growth at 10 µM (SF-268) of 94% and a growth at 10 µM (SF-539) of 89%. For the same molecule, the growth at 10 µM (SNB-75) was 73%, the growth at 10 µM (LOX IMVI) was 82% and the growth at 10 µM (M14) was 90%. The growth at 10 µM (SK-MEL-5) was 89%, the growth at 10 µM (UACC-257) was 87% and the growth at 10 µM (IGROV-1) was 90%. It also gave a growth at 10 µM (OVCAR-3) of 104%, a growth at 10 µM (OVCAR-5) of 80% and a growth at 10 µM (OVCAR-8) of 93%. The growth at 10 µM (NCI/ADR-RES) was 88%, the growth at 10 µM (SK-OV-3) was 103% and the growth at 10 µM (786-0) was 95%. For the same molecule, the growth at 10 µM (CAKI-1) was 86%, the growth at 10 µM (TK-10) was 104% and the growth at 10 µM (UO-31) was 105%. The growth at 10 µM (PC-3) was 97%, the growth at 10 µM (DU-145) was 97% and the growth at 10 µM (MCF7) was 77%. For the same molecule, the growth at 10 µM (MDA-MB-231) was 99%, the growth at 10 µM (BT-549) was 84% and the growth at 10 µM (T47D) was 73%. It also gave a growth at 10 µM (MDA-MB-468) of 89%.
